{"source": "patent US20240239752A1", "about": "“BICYCLIC HETEROAROMATIC INHIBITORS OF KLK5” (BioCryst Pharmaceuticals, Inc., priority 2021, published 2024)"}
{"target": "T1, recombinant human KLK5 (Homo sapiens, UniProt Q9Y337)", "T1 construct": "purchased Novoprotein or R&D Systems C415 or 1108-SE", "T1 sequence (Q9Y337 23-293)": "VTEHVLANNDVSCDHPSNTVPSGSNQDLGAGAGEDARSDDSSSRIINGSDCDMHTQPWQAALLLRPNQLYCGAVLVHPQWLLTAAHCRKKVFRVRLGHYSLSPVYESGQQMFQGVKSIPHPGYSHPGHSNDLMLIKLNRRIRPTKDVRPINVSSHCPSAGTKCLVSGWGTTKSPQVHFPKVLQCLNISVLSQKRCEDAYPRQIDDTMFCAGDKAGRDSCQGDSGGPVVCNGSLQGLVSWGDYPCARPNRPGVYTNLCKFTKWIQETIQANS", "assay": "Kallikrein (KLK) 5 enzymatic assay (Boc-VPR-AMC fluorogenic substrate)", "assay_type": "biochemical", "conditions": "recombinant human KLK5 0.1 μg/well, Boc-VPR-AMC 100 μM, pH 7.5, room temperature, 1% DMSO; tested a minimum of three times", "source_text": "Kallikrein-5 (KLK5) is a member of the serine protease family of proteolytic enzymes, confirmed to have trypsin-like activity (Michael I P, et al. Biochemical and enzymatic characterization of human kallikrein 5 (hK5), a novel serine protease potentially involved in cancer progression (J. Biol. Chem. 2005 Apr. 15; 280 (15): 14628-35). Boc-VPR-AMC is a fluorogenic peptide substrate composed of the short peptide chain, Valine-Proline-Arginine (VPR) and the fluorophore, 7-amino-4-methylcoumarin (AMC). KLK5 is able to cleave the fluorogenic peptide substrate Boc-VPR-AMC, releasing the AMC fluorophore, which causes a fluorescent emission in proportion with the enzymatic activity of KLK5. The KLK5 enzymatic activity is monitored by measuring fluorescent emission at wavelengths of 380 nm (excitation) and 460 nm (emission).\nThe IC50 value of compounds against KLK5 (i.e., the concentration of the compound that inhibits 50% of the enzymatic activity) was calculated according to the procedure reported by R&D systems (Recombinant human KLK5, Catalog Number: 1108-SE), with the exception the pH of the assay was modified from 8.0 to 7.5. Specifically, recombinant human KLK5 (Novoprotein Catalog #C415 or R&D systems Catalog #1108-SE) and fluorogenic peptide Boc-VPR-AMC substrate (R&D Catalog #ES011) were each separately diluted in assay buffer (0.1 M NaH2PO4 buffer, pH 7.5). The compounds of the disclosure were dissolved in DMSO at a concentration of 10 mM. A portion of this stock solution was added to the recombinant human KLK5 solution to provide a desired concentration of the compounds and the mixture was incubated at room temperature. The reaction was initiated by the addition of the fluorogenic peptide substrate at room temperature. The final concentration of recombinant human KLK5 was 0.1 μg/well and the final concentration of the fluorogenic substrate was 100 μM (final volume of 100 μL, 1% DMSO). The assays were performed in 96 well F16 Black Maxisorp Plate (Nunc Catalog #475515). Controls included assay buffer alone and enzyme solutions to which DMSO was added. The reaction rates were measured spectrophotometrically by excitation at 380 nm and emission at 460 nm on a Biotek Synergy H1 plate reader.\nThe reaction rate for enzyme alone was compared to the reaction rate of enzyme in the presence of compound and the percent inhibition was calculated as shown below:\nPercent Inhibition=[Rate with inhibitor/Rate without inhibitor)]×100\nAn IC50 indicates a compound concentration that inhibits 50% of the enzymatic activity. Compounds were tested a minimum of three times.", "units": {"IC50": "µM"}}
{"smiles": "Nc1nccc2ccc(-c3ccc4c(c3)c(COc3ccccc3CC(=O)O)nn4C3CCC(F)(F)C3)cc12", "note": "(stereo not drawn) [Compound 266b, 2-(2-((5-(1-aminoisoquinolin-7-yl)-1-(3,3-difluorocyclopentyl)-1H-indazol-3-yl)methoxy)phenyl)acetic acid]", "IC50": "< 1"}
{"smiles": "COc1ccc(CC(=O)O)c(OCc2c3cc(-c4ccc5ccnc(N)c5c4)ccc3nn2C2CCOC2)c1", "note": "(stereo not drawn) [Compound 13c, 2-(2-((5-(1-aminoisoquinolin-7-yl)-2-(tetrahydrofuran-3-yl)-2H-indazol-3-yl)methoxy)-4-methoxyphenyl)acetic acid]", "IC50": "1 to 10"}
{"smiles": "CCOc1c(C(=N)N)cccc1-c1ccc2c(c1)c(COc1ccccc1CC(=O)O)nn2C(C)C", "note": "[Compound 273e, 2-(2-((5-(3-carbamimidoyl-2-ethoxyphenyl)-1-isopropyl-1H-indazol-3-yl)methoxy)phenyl)acetic acid]", "IC50": "< 1"}
{"smiles": "Cc1cccc(OCc2nn(C3CCC(F)(F)C3)c3ccc(-c4ccc5ccnc(N)c5c4)cc23)c1CC(=O)O", "note": "(stereo not drawn) [Compound 277b, 2-(2-((5-(1-aminoisoquinolin-7-yl)-1-(3,3-difluorocyclopentyl)-1H-indazol-3-yl)methoxy)-6-methylphenyl)acetic acid]", "IC50": "< 1"}
{"smiles": "Nc1nccc2ccc(-c3ccc4c(c3)C(Oc3ccccc3CC(=O)O)CC43CCCC3)cc12", "note": "(stereo not drawn) [Compound 355b, 2-(2-((5′-(1-aminoisoquinolin-7-yl)-2′,3′-dihydrospiro[cyclopentane-1,1′-inden]-3′-yl)oxy)phenyl)acetic acid]", "IC50": "< 1"}
{"smiles": "CC1(C)Cc2ccc(-c3cccc4c(N)nccc34)cc2C1Oc1cc(F)ccc1CC(=O)O", "note": "(stereo not drawn) [Compound 438c, 2-(2-((6-(1-aminoisoquinolin-5-yl)-2,2-dimethyl-2,3-dihydro-1H-inden-1-yl)oxy)-4-fluorophenyl)acetic acid]", "IC50": "< 1"}
{"smiles": "Nc1nccc2c(-c3ccc4c(c3)c(COc3ccccc3CC(=O)O)nn4C3CCC3)cccc12", "note": "[Compound 69b, 2-(2-((5-(1-aminoisoquinolin-5-yl)-1-cyclobutyl-1H-indazol-3-yl)methoxy)phenyl)acetic acid]", "IC50": "< 1"}
{"smiles": "COc1cccc(OCc2nn(C3CCC3)c3ccc(-c4ccc5ccnc(N)c5c4)cc23)c1CC(=O)O", "note": "[Compound 172d, 2-(2-((5-(1-aminoisoquinolin-7-yl)-1-cyclobutyl-1H-indazol-3-yl)methoxy)-6-methoxyphenyl)acetic acid]", "IC50": "1 to 10"}
{"smiles": "N#Cc1cccc(CC(=O)O)c1O[C@@H]1CCc2ccc(-c3cccc4c(N)nccc34)cc21", "note": "[Compound 430b, (R)-2-(2-((6-(1-aminoisoquinolin-5-yl)-2,3-dihydro-1H-inden-1-yl)oxy)-3-cyanophenyl)acetic acid]", "IC50": "1 to 10"}
{"smiles": "N=C(N)c1cccc(-c2ccc3c(c2)c(COc2ccccc2CC(=O)O)nn3C2CCC2)c1", "note": "[Compound 28d, 2-(2-((5-(3-carbamimidoylphenyl)-1-cyclobutyl-1H-indazol-3-yl)methoxy)phenyl)acetic acid]", "IC50": "< 1"}
{"smiles": "COC(=O)N1CCC2(CC1)CC(Oc1cc(OC)ccc1CC(=O)O)c1cc(-c3cccc4c(N)nccc34)ccc12", "note": "(stereo not drawn) [Compound 453b, 2-(2-((5-(1-aminoisoquinolin-5-yl)-1′-(methoxycarbonyl)-2,3-dihydrospiro[indene-1,4′-piperidin]-3-yl)oxy)-4-methoxyphenyl)acetic acid]", "IC50": "< 1"}
{"smiles": "COc1c(-c2ccc3nn(C4CCC4)c(COc4ccccc4CC(=O)O)c3c2)ccnc1C(=N)NO", "note": "[Compound 23g, 2-(2-((2-cyclobutyl-5-(2-(N-hydroxycarbamimidoyl)-3-methoxypyridin-4-yl)-2H-indazol-3-yl)methoxy)phenyl)acetic acid]", "IC50": "1 to 10"}
{"smiles": "COc1ccc(-c2ccc3c(c2)c(COc2ccccc2CC(=O)O)nn3C(C)C)cc1C(=N)N", "note": "[Compound 211e, 2-(2-((5-(3-carbamimidoyl-4-methoxyphenyl)-1-isopropyl-1H-indazol-3-yl)methoxy)phenyl)acetic acid]", "IC50": "1 to 10"}
{"smiles": "Nc1nccc2c(-c3ccc4c(c3)[C@H](Oc3ccccc3CC(=O)O)CC4)cccc12", "note": "[Compound 216b, (R)-2-(2-((6-(1-aminoisoquinolin-5-yl)-2,3-dihydro-1H-inden-1-yl)oxy)phenyl)acetic acid]", "IC50": "< 1"}
{"smiles": "N#Cc1cccc(O[C@@H]2CCc3ccc(-c4cccc5c(N)nccc45)cc32)c1CC(=O)O", "note": "[Compound 433b, (R)-2-(2-((6-(1-aminoisoquinolin-5-yl)-2,3-dihydro-1H-inden-1-yl)oxy)-6-cyanophenyl)acetic acid]", "IC50": "< 1"}
{"smiles": "COC(=O)N1CCC2(CC1)C[C@H](Oc1ccccc1CC(=O)O)c1cc(-c3ccc4ccnc(N)c4c3)ccc12", "note": "[Compound 397b, (S)-2-(2-((5-(1-aminoisoquinolin-7-yl)-1′-(methoxycarbonyl)-2,3-dihydrospiro[indene-1,4′-piperidin]-3-yl)oxy)phenyl)acetic acid]", "IC50": "< 1"}
{"smiles": "Nc1nccc2ccc(-c3ccc4c(c3)c(COc3ccccc3CC(=O)O)nn4C3CC4(CCC4)C3)cc12", "note": "[Compound 112e, 2-(2-((5-(1-aminoisoquinolin-7-yl)-1-(spiro[3.3]heptan-2-yl)-1H-indazol-3-yl)methoxy)phenyl)acetic acid]", "IC50": "< 1"}
{"smiles": "COC(=O)N1CCC2(CC1)CC(Oc1c(C#N)cccc1CC(=O)O)c1cc(-c3cccc4c(N)nccc34)ccc12", "note": "(stereo not drawn) [Compound 455b, 2-(2-((5-(1-aminoisoquinolin-5-yl)-1′-(methoxycarbonyl)-2,3-dihydrospiro[indene-1,4′-piperidin]-3-yl)oxy)-3-cyanophenyl)acetic acid]", "IC50": "1 to 10"}
{"smiles": "Nc1nccc2c(-c3ccc4c(c3)c(COc3ccccc3CC(=O)O)nn4C3CCCC3)cccc12", "note": "[Compound 223b, 2-(2-((5-(1-aminoisoquinolin-5-yl)-1-cyclopentyl-1H-indazol-3-yl)methoxy)phenyl)acetic acid]", "IC50": "< 1"}
{"smiles": "CC(C)(C)OC(=O)N1CC(n2nc(COc3ccccc3CC(=O)O)c3cc(-c4cccc5c(N)nccc45)ccc32)C1", "note": "[Compound 142b, 2-(2-((5-(1-aminoisoquinolin-5-yl)-1-(1-(tert-butoxycarbonyl)azetidin-3-yl)-1H-indazol-3-yl)methoxy)phenyl)acetic acid]", "IC50": "< 1"}
{"smiles": "Nc1nccc2c(-c3ccc4nn(C5CCCC5)c(COc5ccccc5CC(=O)O)c4c3)cccc12", "note": "[Compound 21e, 2-(2-((5-(1-aminoisoquinolin-5-yl)-2-cyclopentyl-2H-indazol-3-yl)methoxy)phenyl)acetic acid]", "IC50": "< 1"}
{"smiles": "Nc1nccc2ccc(-c3ccc4c(c3)c(COc3ccccc3CC(=O)O)nn4C3CCN(CC(=O)O)C3)cc12", "note": "(stereo not drawn) [Compound 297d, 2-(2-((5-(1-aminoisoquinolin-7-yl)-1-(1-(carboxymethyl)pyrrolidin-3-yl)-1H-indazol-3-yl)methoxy)phenyl)acetic acid]", "IC50": "< 1"}
{"smiles": "Cc1cccc(OCc2nn(C3CCCC3)c3ccc(-c4ccc5ccnc(N)c5c4)cc23)c1CC(=O)O", "note": "[Compound 240b, 2-(2-((5-(1-aminoisoquinolin-7-yl)-1-cyclopentyl-1H-indazol-3-yl)methoxy)-6-methylphenyl)acetic acid]", "IC50": "< 1"}
{"smiles": "CC(C)Cn1nc(COc2ccccc2CC(=O)O)c2cc(-c3cccc4c(N)nccc34)ccc21", "note": "[Compound 189b, 2-(2-((5-(1-aminoisoquinolin-5-yl)-1-isobutyl-1H-indazol-3-yl)methoxy)phenyl)acetic acid]", "IC50": "< 1"}
